Values of other authors, collected in patent US6974588B1, “Transdermal patch for delivering volatile liquid drugs” (Elan Pharma International Limited, priority 1999, dated 2005).

System: nicotine dependence
Conditions: oral administration, literature report

## CNC1(C)C2CCC(C2)C1(C)C (stereo not shown) [oral mecamylamine, mecamylamine]
  ad hoc cigarette consumption: increased
